Results: patent US10597388B2, “Pyridazinone herbicides” (FMC CORPORATION, priority 2014, dated 2020)

Key:
Assay in all cases: Test C greenhouse herbicide test, pre- and postemergence
Format in all cases: in vivo
[1] = tested on: waterhemp (common waterhemp, Amaranthus rudis)
In short: (§1)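 Visual 0–100 injury score (100 = complete control) taken against untreated controls after 13–15 d in greenhouse. Test chemicals, formulated in solvent plus surfactant, applied preemergence to seeds in loam–sand soil or postemergence to 1- to 4-leaf plants (2–18 cm).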

[2] = tested on: blackgrass (Alopecurus myosuroides)
In short: as §1

[3] = tested on: morningglory (Ipomoea coccinea)
In short: as §1

[4] = tested on: crabgrass, large (large crabgrass, Digitaria sanguinalis)
In short: as §1

[5] = tested on: ryegrass, Italian (Italian ryegrass, Lolium multiflorum)
In short: as §1

[6] = tested on: foxtail, giant (giant foxtail, Setaria faberii)
In short: as §1

[7] = tested on: oilseed rape (Brassica napus)
In short: as §1

[8] = tested on: barnyardgrass (Echinochloa crus-galli)
In short: as §1

[9] = tested on: nutsedge, yellow (yellow nutsedge, Cyperus esculentus)
In short: as §1

[10] = tested on: johnsongrass (Sorghum halepense)
In short: as §1

[11] = tested on: lambsquarters (Chenopodium album)
In short: as §1

[12] = tested on: velvetleaf (Abutilon theophrasti)
In short: as §1

[13] = tested on: ragweed (common ragweed, Ambrosia elatior)
In short: as §1

[14] = tested on: pigweed (Amaranthus retroflexus)
In short: as §1

[15] = tested on: corn (Zea mays)
In short: as §1

[16] = tested on: galium (catchweed bedstraw, Galium aparine)
In short: as §1

[17] = Postemergence, 31 g ai/ha, 0 to 100 scale (0 no effect, 100 complete control)
[18] = Postemergence, 125 g ai/ha, scale 0 to 100, 0 is no effect, 100 is complete control
[19] = Postemergence, 250 g ai/ha, scale 0 to 100, 0 no effect, 100 complete control, 13 to 15 d
[20] = Preemergence, 62 g ai/ha, scale 0 to 100, 0 is no effect, 100 is complete control
[21] = Preemergence, 125 g ai/ha, scale 0 to 100, 0 is no effect, 100 is complete control
[22] = Preemergence, 250 g ai/ha, scale 0 to 100 (0 no effect, 100 complete control)
[23] = postemergence, 62 g ai/ha, scale 0 to 100, 0 no effect, 100 complete control
[24] = Preemergence, 31 g ai/ha, scale 0 to 100, 0 is no effect, 100 is complete control

## CC(=O)Oc1c(C)nn(C)c(=O)c1-c1c(C)sc2c(C)cc(C)cc12 [Compound 27]
[1]; [17]
  Waterhemp plant response rating: 65
[1]; [18]
  Plant response rating, Waterhemp: 10
[1]; [19]
  Plant response rating, Waterhemp: 90
[1]; [20]
  Plant response rating, Waterhemp: 85
[1]; [21]
  Plant response rating, Waterhemp: 100
[1]; [22]
  Waterhemp plant response rating: 100
[1]; [23]
  Waterhemp plant response rating: 60
[2]; [17]
  Blackgrass plant response rating: 50
[2]; [18]
  Plant response rating, Blackgrass: 85
[2]; [19]
  Plant response rating, Blackgrass: 90
[2]; [24]
  Plant response rating, Blackgrass: 85
[2]; [20]
  Plant response rating, Blackgrass: 90
[2]; [21]
  Plant response rating, Blackgrass: 90
[2]; [22]
  Blackgrass plant response rating: 90
[2]; [23]
  Blackgrass plant response rating: 70
[3]; [17]
  Morningglory plant response rating: 100
[3]; [18]
  Plant response rating, Morningglory: 100
[3]; [19]
  Plant response rating, Morningglory: 100
[3]; [24]
  Plant response rating, Morningglory: 85
[3]; [20]
  Plant response rating, Morningglory: 98
[3]; [21]
  Plant response rating, Morningglory: 100
[3]; [22]
  Morningglory plant response rating: 100
[3]; [23]
  Morningglory plant response rating: 100
[4]; [17]
  Crabgrass, Large plant response rating: 5
[4]; [18]
  Plant response rating, Crabgrass, Large: 30
[4]; [19]
  Plant response rating, Crabgrass, Large: 45
[4]; [24]
  Plant response rating, Crabgrass, Large: 55
[4]; [20]
  Plant response rating, Crabgrass, Large: 80
[4]; [21]
  Plant response rating, Crabgrass, Large: 95
[4]; [22]
  Crabgrass, Large plant response rating: 98
[4]; [23]
  Crabgrass, Large plant response rating: 25
[5]; [17]
  Ryegrass, Italian plant response rating: 80
[5]; [18]
  Plant response rating, Ryegrass, Italian: 90
[5]; [19]
  Plant response rating, Ryegrass, Italian: 90
[5]; [24]
  Plant response rating, Ryegrass, Italian: 85
[5]; [20]
  Plant response rating, Ryegrass, Italian: 90
[5]; [21]
  Plant response rating, Ryegrass, Italian: 90
[5]; [22]
  Ryegrass, Italian plant response rating: 95
[5]; [23]
  Ryegrass, Italian plant response rating: 85
[6]; [17]
  Foxtail, Giant plant response rating: 60
[6]; [18]
  Plant response rating, Foxtail, Giant: 90
[6]; [19]
  Plant response rating, Foxtail, Giant: 95
[6]; [24]
  Plant response rating, Foxtail, Giant: 100
[6]; [20]
  Plant response rating, Foxtail, Giant: 100
[6]; [21]
  Plant response rating, Foxtail, Giant: 100
[6]; [22]
  Foxtail, Giant plant response rating: 100
[6]; [23]
  Foxtail, Giant plant response rating: 75
[7]; [17]
  Oilseed Rape plant response rating: 5
[7]; [18]
  Plant response rating, Oilseed Rape: 80
[7]; [19]
  Plant response rating, Oilseed Rape: 70
[7]; [24]
  Plant response rating, Oilseed Rape: 5
[7]; [20]
  Plant response rating, Oilseed Rape: 95
[7]; [21]
  Plant response rating, Oilseed Rape: 98
[7]; [22]
  Oilseed Rape plant response rating: 98
[7]; [23]
  Oilseed Rape plant response rating: 70
[8]; [17]
  Barnyardgrass plant response rating: 15
[8]; [18]
  Plant response rating, Barnyardgrass: 25
[8]; [19]
  Plant response rating, Barnyardgrass: 50
[8]; [24]
  Plant response rating, Barnyardgrass: 55
[8]; [20]
  Plant response rating, Barnyardgrass: 80
[8]; [21]
  Plant response rating, Barnyardgrass: 90
[8]; [22]
  Barnyardgrass plant response rating: 90
[8]; [23]
  Barnyardgrass plant response rating: 20
[9]; [17]
  Nutsedge, Yellow plant response rating: 85
[9]; [19]
  Plant response rating, Nutsedge, Yellow: 95
[9]; [24]
  Plant response rating, Nutsedge, Yellow: 70
[9]; [20]
  Plant response rating, Nutsedge, Yellow: 90
[9]; [21]
  Plant response rating, Nutsedge, Yellow: 90
[9]; [22]
  Nutsedge, Yellow plant response rating: 95
[9]; [23]
  Nutsedge, Yellow plant response rating: 80
[10]; [17]
  Johnsongrass plant response rating: 10
[10]; [19]
  Plant response rating, Johnsongrass: 10
[10]; [24]
  Plant response rating, Johnsongrass: 0
[10]; [20]
  Plant response rating, Johnsongrass: 5
[10]; [21]
  Plant response rating, Johnsongrass: 5
[10]; [22]
  Johnsongrass plant response rating: 25
[10]; [23]
  Johnsongrass plant response rating: 0
[11]; [17]
  Lambsquarters plant response rating: 85
[11]; [18]
  Plant response rating, Lambsquarters: 90
[11]; [19]
  Plant response rating, Lambsquarters: 98
[11]; [24]
  Plant response rating, Lambsquarters: 70
[11]; [20]
  Plant response rating, Lambsquarters: 95
[11]; [21]
  Plant response rating, Lambsquarters: 95
[11]; [22]
  Lambsquarters plant response rating: 98
[11]; [23]
  Lambsquarters plant response rating: 85
[12]; [17]
  Velvetleaf plant response rating: 80
[12]; [18]
  Plant response rating, Velvetleaf: 90
[12]; [19]
  Plant response rating, Velvetleaf: 95
[12]; [20]
  Plant response rating, Velvetleaf: 85
[12]; [21]
  Plant response rating, Velvetleaf: 85
[12]; [22]
  Velvetleaf plant response rating: 98
[12]; [23]
  Velvetleaf plant response rating: 85
[13]; [17]
  Ragweed plant response rating: 70
[13]; [18]
  Plant response rating, Ragweed: 85
[13]; [19]
  Plant response rating, Ragweed: 90
[13]; [24]
  Plant response rating, Ragweed: 80
[13]; [20]
  Plant response rating, Ragweed: 100
[13]; [21]
  Plant response rating, Ragweed: 100
[13]; [22]
  Ragweed plant response rating: 95
[13]; [23]
  Ragweed plant response rating: 75
[14]; [17]
  Pigweed plant response rating: 55
[14]; [18]
  Plant response rating, Pigweed: 85
[14]; [19]
  Plant response rating, Pigweed: 90
[14]; [24]
  Plant response rating, Pigweed: 98
[14]; [20]
  Plant response rating, Pigweed: 100
[14]; [21]
  Plant response rating, Pigweed: 98
[14]; [22]
  Pigweed plant response rating: 100
[14]; [23]
  Pigweed plant response rating: 80
[15]; [17]
  Corn plant response rating: 0
[15]; [18]
  Plant response rating, Corn: 0
[15]; [19]
  Plant response rating, Corn: 15
[15]; [24]
  Plant response rating, Corn: 0
[15]; [20]
  Plant response rating, Corn: 0
[15]; [21]
  Plant response rating, Corn: 5
[15]; [22]
  Corn plant response rating: 0
[15]; [23]
  Corn plant response rating: 5
[16]; [17]
  Galium plant response rating: 100
[16]; [18]
  Plant response rating, Galium: 100
[16]; [19]
  Plant response rating, Galium: 100
[16]; [24]
  Plant response rating, Galium: 90
[16]; [20]
  Plant response rating, Galium: 95
[16]; [21]
  Plant response rating, Galium: 95
[16]; [22]
  Galium plant response rating: 95
[16]; [23]
  Galium plant response rating: 100
